Results on 18 compounds are retold here after patent US12187738B2, “Imidazolo derivatives, compositions and methods as orexin antagonists” (HAGER BIOSCIENCES, LLC, priority 2019, dated 2025).

For one assay, the target named is T1, human orexin-1 receptor (Homo sapiens, UniProt O43613).
T1 construct: expressed in transfected cells; host or cells: CHO cells (G418 selection)
T1 sequence (O43613 1-425): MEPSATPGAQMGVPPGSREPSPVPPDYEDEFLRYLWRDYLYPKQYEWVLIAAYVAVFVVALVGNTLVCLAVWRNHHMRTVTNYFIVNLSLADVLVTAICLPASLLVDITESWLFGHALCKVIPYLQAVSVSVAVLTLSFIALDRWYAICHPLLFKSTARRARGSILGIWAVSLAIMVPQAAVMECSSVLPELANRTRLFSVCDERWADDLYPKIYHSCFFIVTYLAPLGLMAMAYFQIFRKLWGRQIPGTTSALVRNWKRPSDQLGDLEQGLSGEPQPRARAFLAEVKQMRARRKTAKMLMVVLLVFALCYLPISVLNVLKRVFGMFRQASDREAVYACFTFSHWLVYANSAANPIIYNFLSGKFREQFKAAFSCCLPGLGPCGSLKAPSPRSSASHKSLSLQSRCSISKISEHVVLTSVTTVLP
The experiment in a line: Intracellular calcium measurement (FLIPR), orexin-1 receptor antagonism. The class given is cell-based. The following applies: CHO cells expressing human orexin-1 receptor, 3 nM orexin-A agonist; for inhibition at 1 µM: 1 uM compound, read-out: % Inhibition of OX1R @ 1 uM compound; for IC50: read-out: IC50 OX1R; for Kb: read-out: Kb OX1R. On the procedure: (§1) Antagonistic activities on both orexin receptors have been measured for each example compound using the following procedure:
(§2) In Vitro Assay: Intracellular Calcium Measurements:
(§3) Chinese hamster ovary (CHO) cells expressing the human orexin-1 receptor and the human orexin-2 receptor, respectively, are grown in culture medium (Ham F-12 with L-Glutamine) containing 300 μg/mL G418, 100 U/mL penicillin, 100 μg/mL streptomycin and 10% heat inactivated fetal calf serum (FCS). The cells are seeded at 20′000 cells/well into 384-well black clear bottom sterile plates (Greiner). The seeded plates are incubated overnight at 37° C. in 5% CO2. Human orexin-A as an agonist is prepared as 1 mM stock solution in MeOH:water (1:1), diluted in HBSS containing 0.1% bovine serum albumin (BSA), NaHCO 3: 0.375 g/L and 20 mM HEPES for use in the assay at a final concentration of 3 nM.
(§4) Antagonists are prepared as 10 mM stock solution in DMSO, then diluted in 384-well plates using DMSO followed by a transfer of the dilutions into in HBSS containing 0.1% bovine serum albumin (BSA), NaHCO 3: 0.375 g/L and 20 mM HEPES. On the day of the assay, 50 μL of staining buffer (HBSS containing 1% FCS, 20 mM HEPES, NaHCO 3: 0.375 g/L, 5 mM probenecid (Sigma) and 3 μM of the fluorescent calcium indicator fluo-4 AM (1 mM stock solution in DMSO, containing 10% pluronic) is added to each well. The 384-well cell-plates are incubated for 50 min at 37° C. in 5% CO2 followed by equilibration at RT for 30 min before measurement.
(§5) Within the Fluorescent Imaging Plate Reader (FLIPR Tetra, Molecular Devices), antagonists are added to the plate in a volume of 10 μL/well, incubated for 120 min and finally 10 μL/well of agonist is added. Fluorescence is measured for each well at 1 second intervals, and the height of each fluorescence peak is compared to the height of the fluorescence peak induced by 3 nM orexin-A with vehicle in place of antagonist. The IC50 value (the concentration of compound needed to inhibit 50% of the agonistic response) is determined and may be normalized using the obtained IC50 value of an on-plate reference compound. Optimized conditions were achieved by adjustment of pipetting speed and cell splitting regime. The calculated IC50 values may fluctuate depending on the daily cellular assay performance. Fluctuations of this kind are known to those skilled in the art. In the case where IC50 values have been determined several times for the same compound, the geometric mean has been given.
For orientation: A change in cytosolic calcium serves as a functional read-out for many receptors and channels.

The next assay deals with T2, human orexin-2 receptor (Homo sapiens, UniProt O43614).
T2 construct: expressed in transfected cells; host or cells: CHO cells (G418 selection)
T2 sequence (O43614 1-444): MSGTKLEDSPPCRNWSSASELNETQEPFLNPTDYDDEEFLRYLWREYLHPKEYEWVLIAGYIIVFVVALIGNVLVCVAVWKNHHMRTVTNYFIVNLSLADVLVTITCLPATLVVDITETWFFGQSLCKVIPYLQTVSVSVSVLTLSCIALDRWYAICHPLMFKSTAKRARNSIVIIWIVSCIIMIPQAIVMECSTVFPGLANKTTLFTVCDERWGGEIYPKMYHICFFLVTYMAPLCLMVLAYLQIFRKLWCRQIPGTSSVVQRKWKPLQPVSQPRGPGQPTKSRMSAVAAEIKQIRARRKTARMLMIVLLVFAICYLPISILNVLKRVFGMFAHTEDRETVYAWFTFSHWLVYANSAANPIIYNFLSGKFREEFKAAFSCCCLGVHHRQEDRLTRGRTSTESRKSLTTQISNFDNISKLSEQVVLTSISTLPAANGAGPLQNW
The experiment in a line: Intracellular calcium measurement (FLIPR), orexin-2 receptor antagonism. It counts as cell-based. The following applies: CHO cells expressing human orexin-2 receptor, 3 nM orexin-A agonist; for inhibition at 1 µM: 1 uM compound, read-out: % Inhibition of OX2R @ 1 uM compound. On the procedure:
as §1, §2, §3, §4, §5

As usually defined, the inhibition is the drop in the measured response relative to a control, in per cent. In the case of `O=C(c1c(-c2ccccc2)nc2occn12)N1CCC[C@H]1Cn1ccc(-c2ccccc2)n1` [Example 1], the inhibition at 1 µM is 70.4% on human orexin-1 receptor and 26.6% at human orexin-2 receptor.
For `O=C(c1c(-c2ccccc2)nc2sccn12)N1CCC[C@H]1Cn1ccc(-c2ccccc2)n1` [Example 2], in that order: 83% and 39.9%.
`O=C(c1c(-c2ccccc2)nc2occn12)N1CCC[C@H]1CNc1ccc(C(F)(F)F)cn1` [Example 3]: the inhibition at 1 µM at human orexin-1 receptor is 45.8%; at human orexin-2 receptor, 14.4%.
The corresponding values for `O=C(c1c(-c2ccccc2)nc2sccn12)N1CCC[C@H]1CNc1ccc(C(F)(F)F)cn1` [Example 4] are 61.1% and 25.4%.
The corresponding values for `CCc1cnc(NC[C@@H]2CCCN2C(=O)c2c(-c3ccccc3)nc3occn23)nc1` [Example 5] are 0.5% and 3.3%.
For `CCc1cnc(NC[C@@H]2CCCN2C(=O)c2c(-c3ccccc3)nc3sccn23)nc1` [Example 6], in that order: -5.39% and 16.2%.
On to `CCc1cnc(NC[C@@H]2[C@H](C)CCCN2C(=O)c2c(-c3ccccc3)nc3occn23)nc1` [Example 7], for which the inhibition at 1 µM on human orexin-1 receptor stood at 48.1%; at human orexin-2 receptor it was 6.75%.
By IC50 is commonly meant the concentration at which inhibition is half-maximal. The Kb is the equilibrium dissociation constant of an antagonist, usually derived from a functional assay. Take `C[C@@H]1CCCN(C(=O)c2c(-c3ccccc3)nc3occn23)[C@@H]1CNc1ccc(C(F)(F)F)cn1` [Example 8]: at human orexin-1 receptor, the inhibition at 1 µM was found to be 81.6%, the IC50 was found to be 11 nM and the Kb stood at 2 nM. Moreover, the inhibition at 1 µM on human orexin-2 receptor was determined as 1.8%.
In the case of `C[C@@H]1CCCN(C(=O)c2c(-c3ccccc3)nc3sccn23)[C@@H]1CNc1ccc(C(F)(F)F)cn1` [Example 9], on human orexin-1 receptor, the inhibition at 1 µM came to 81.4%, the IC50 is 18 nM and the Kb was 4 nM. At human orexin-2 receptor, the inhibition at 1 µM is 10.7%.
In the case of `CCc1cnc(NC[C@@H]2[C@H](C)CCCN2C(=O)c2c(-c3ccccc3)nc3sccn23)nc1` [Example 10], at human orexin-1 receptor, the inhibition at 1 µM came to 63.5%, the IC50 came out at 270 nM and the Kb is 57 nM. Moreover, the inhibition at 1 µM at human orexin-2 receptor was found to be 9.37%.
For `CCc1cnc(NC[C@@H]2CCCN2C(=O)c2c(-c3ccc(F)cc3)nc3sc(C)nn23)nc1` [Example 11], the results for the inhibition at 1 µM on human orexin-1 receptor and on human orexin-2 receptor were 16.1% and 12%, respectively.
For `Cc1nn2c(C(=O)N3CCC[C@@H](C)[C@H]3CNc3ccc(C(F)(F)F)cn3)c(-c3ccc(F)cc3)nc2s1` [Example 12], on human orexin-1 receptor, the inhibition at 1 µM was determined as 79.8%, the half-maximal inhibitory concentration (IC50) is 13 nM and the Kb was 3 nM. Besides, the inhibition at 1 µM on human orexin-2 receptor worked out at 11.8%.
As for `O=C(c1c(-c2ccccc2F)nc2sccn12)N1CCC[C@H]1CNc1ccc(C(F)(F)F)cn1` [Example 13], the inhibition at 1 µM on human orexin-1 receptor came out at 62.8%; at human orexin-2 receptor it was 29%.
In the case of `O=C(c1c(-c2ccccc2F)nc2sccn12)N1CCC[C@H]1Cn1ccc(-c2ccccc2)n1` [Example 14], the inhibition at 1 µM on human orexin-1 receptor is 87.4%; at human orexin-2 receptor, 57%. The IC50 at human orexin-1 receptor is 12 nM; on human orexin-2 receptor (read-out: IC50 OX2R), 1750 nM. Also, the Kb turned out to be 3 nM on human orexin-1 receptor and 241 nM on human orexin-2 receptor (read-out: Kb OX2R).
Regarding `CCc1cnc(NC[C@@H]2CCCN2C(=O)c2c(-c3ccccc3F)nc3sccn23)nc1` [Example 15], the values for the inhibition at 1 µM on human orexin-1 receptor and on human orexin-2 receptor were 25.1% and 15.2%, respectively.
With `O=C(c1c(-c2ccc(F)cc2)nc2scnn12)N1CCC[C@H]1Cn1ccc(-c2ccccc2)n1` [Example 16], at human orexin-1 receptor, the inhibition at 1 µM was 90.3%, the IC50 was 7 nM and the Kb was 1.5 nM. Moreover, the inhibition at 1 µM on human orexin-2 receptor came to 34.4%.
On to `CCc1cnc(OC[C@@H]2CCCN2C(=O)c2c(-c3ccccc3)nc3occn23)nc1` [Example 17], for which the inhibition at 1 µM at human orexin-1 receptor amounted to 4.5%; at human orexin-2 receptor it was 8.06%.
The corresponding values for `O=C(c1c(-c2ccccc2)nc2occn12)N1CCC[C@H]1COc1ccc(C(F)(F)F)cn1` [Example 18] are 37.1% and 14.9%.
